The text below walks through data of US20180312493A1, “Antibiotic Compounds, Pharmaceutical Formulations Thereof And Methods And Uses Therefor” (Simon Fraser University, priority 2015, published 2018).

For assay [1], the system named is K. pneumoniae (C238). Nature of the assay: In vitro susceptibility, broth microdilution (MIC). In kind it is cell-based. As to conditions: Klebsiella pneumoniae; K. pneumoniae (C238); read-out: Antimicrobial activity (MIC) K. pneumoniae. Put shortly:
(§1)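 CLSI 2-fold serial broth microdilution; K. pneumoniae C238 grown in L-broth, S. aureus ATCC 29213 in Mueller Hinton broth, plates incubated 18–24 h at 37 °C. MIC taken as lowest concentration giving complete growth inhibition by OD600 versus compound-free wells, background-subtracted.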

The subject of assay [2] is S. aureus (ATCC29213). Nature of the assay: In vitro susceptibility, broth microdilution (MIC). The format is cell-based. As to conditions: Staphylococcus aureus; S. aureus ATCC29213; 18-24 h, 37 C; read-out: Antimicrobial activity (MIC) S. aureus ATCC29213. Put shortly:
as §1

Assay [3] concerns the target T1, MRSA Pyk (Staphylococcus aureus, UniProt Q6GG09).
T1 construct: made in house; host or cells: E. coli BL-21 (DE3)
The experiment in a line: MRSA pyruvate kinase (PK) activity, continuous LDH-coupled assay. In kind it is biochemical, methicillin resistant S. aureus (MRSA252). Put shortly:
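Activity monitored continuously as absorbance change at 340 nm from NADH oxidation via coupled lactate dehydrogenase, reactions started with 15 nM recombinant His-tagged PK (MRSA or human isoform) and run at 30° C for up to 5 min. Ki derived by varying inhibitor (0-400 nM) and PEP (2-20 mM) at 2 mM ADP; IC50 by four-parameter fitting.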

Converted amounts (≈) assume the structure as drawn.

T1 sequence (Q6GG09 whole entry): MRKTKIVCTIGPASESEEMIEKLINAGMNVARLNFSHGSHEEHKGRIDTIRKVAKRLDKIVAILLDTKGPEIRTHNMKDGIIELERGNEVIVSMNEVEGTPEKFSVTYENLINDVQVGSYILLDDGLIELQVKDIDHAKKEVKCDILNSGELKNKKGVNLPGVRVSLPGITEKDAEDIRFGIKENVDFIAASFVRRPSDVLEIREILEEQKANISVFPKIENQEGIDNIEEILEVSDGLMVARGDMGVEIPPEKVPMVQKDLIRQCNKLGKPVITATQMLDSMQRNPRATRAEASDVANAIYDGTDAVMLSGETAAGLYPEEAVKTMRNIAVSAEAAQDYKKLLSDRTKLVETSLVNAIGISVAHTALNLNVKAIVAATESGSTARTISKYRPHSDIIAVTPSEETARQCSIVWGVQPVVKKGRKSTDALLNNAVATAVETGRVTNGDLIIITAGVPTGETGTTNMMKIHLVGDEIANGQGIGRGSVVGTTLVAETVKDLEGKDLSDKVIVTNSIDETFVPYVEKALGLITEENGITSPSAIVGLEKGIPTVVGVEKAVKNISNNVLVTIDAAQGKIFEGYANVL

On to `CNC(=O)C(O)c1c(/C=C/c2ccc(Cl)cc2)[nH]c2cc(Br)ccc12` (stereo not drawn) [Compound 90, (E)-2-(6-bromo-2-(4-chlorostyryl)-1H-indol-3-yl)-2-hydroxy-N-methylacetamide], for which the MIC in assay [1] and in assay [2] was above 64 µg/mL in each case. In addition, in assay [3], the IC50 fell in the range of 100 to 1000 nM.
As for `COCCNC(=O)CCCC(=O)c1c(-c2cc3cc(Cl)ccc3[nH]2)[nH]c2cc(Br)ccc12` [Compound 103, 5-(6-bromo-5′-chloro-1H,1′H-[2,2′-biindol]-3-yl)-N-(2-methoxyethyl)-5-oxopentanamide], the MIC in assay [1] and in assay [2] was above 64 µg/mL throughout. The IC50 in assay [3] is below 100 nM.
As for `O=C(CCCC(=O)c1c(-c2cc3cc(Cl)ccc3[nH]2)[nH]c2cc(Br)ccc12)NCCO` [Compound 104, 5-(6-bromo-5′-chloro-1H,1′H-[2,2′-biindol]-3-yl)-N-(2-hydroxyethyl)-5-oxopentanamide], the MIC in assay [1] and in assay [2] was above 64 µg/mL throughout. Besides, in assay [3], the IC50 was below 100 nM.
Consider `O=C(NCCc1ccccn1)C(=O)c1c(/C=C/c2ccc(Cl)cc2)[nH]c2cc(Br)ccc12` [Compound 88, (E)-2-(6-bromo-2-(4-chlorostyryl)-1H-indol-3-yl)-2-oxo-N-(2-(pyridin-2-yl)ethyl)acetamide], for which the minimal inhibitory concentration (MIC) in assay [1] and in assay [2] was above 64 µg/mL throughout. For the same molecule, the IC50 in assay [3] was 100 to 1000 nM.
In the case of `O=C(NCCCCN1CCOCC1)c1c(/C=C/c2ccc(Cl)cc2)[nH]c2cc(Br)ccc12` [Compound 45, (E)-6-Bromo-2-(4-chlorostyryl)-N-(4-morpholinobutyl)-1H-indole-3-carboxamide], the figures for the MIC in assay [1] and in assay [2] were 32 µg/mL (≈ 61.9 µM) and above 64 µg/mL, respectively. Moreover, the IC50 in assay [3] is below 100 nM.
The like results for `CN(Cc1ccccc1)c1c(CCc2ccc(Cl)cc2)[nH]c2cc(Br)ccc12` [Compound 98, N-benzyl-6-bromo-2-(4-chlorophenethyl)-N-methyl-1H-indol-3-amine] were, in that order, above 64 µg/mL, 32 µg/mL (≈ 70.5 µM) and 100 to 1000 nM.
Regarding `COc1cc2[nH]c(-c3cc4ccc(Br)cc4[nH]3)cc2cc1Cl` [Compound 140, 6′-Bromo-5-chloro-6-methoxy-1H,1′H-2,2′-biindole], the minimum inhibitory concentration (MIC) in assay [1] and in assay [2] was above 64 µg/mL in each case.
On to `CNC(=O)C(=O)c1c(CCc2ccc(Cl)cc2)[nH]c2cc(Br)ccc12` [Compound 89, 2-(6-bromo-2-(4-chlorophenethyl)-1H-indol-3-yl)-N-methyl-2-oxoacetamide], for which the MIC in assay [1] and in assay [2] was above 64 µg/mL in each case. In assay [3], the 50% inhibitory concentration (IC50) is above 1000 nM.
For `CN(C)CCn1c(-c2ccc(Cl)cc2)nc2[nH]c3cc(Br)ccc3c2c1=O` [Compound 111, 7-bromo-2-(4-chlorophenyl)-3-(2-(dimethylamino)ethyl)-3H-pyrimido[4,5-b]indol-4(9H)-one], the minimal inhibitory concentration (MIC) in assay [1] and in assay [2] was above 64 µg/mL throughout.
With `FC(F)(F)c1ccc2sc(/C=C/c3ccc(Cl)cc3)nc2c1` [Compound 115, (E)-2-(4-chlorostyryl)-5-(trifluoromethyl)benzo[d]thiazole], the minimum inhibitory concentration (MIC) in assay [1] and in assay [2] was above 64 µg/mL in each case.
`O=C(Nc1ccccc1)Nc1nc2cc(Br)ccc2s1` [Compound 99, 1-(5-bromobenzo[d]thiazol-2-yl)-3-phenylurea]: the minimum inhibitory concentration (MIC) in assay [1] turned out to be 8 µg/mL (≈ 23 µM); in assay [2], 1 µg/mL (≈ 2.87 µM).
In the same order, the values of `O=C(NCCCN1CCOCC1)c1c(/C=C/c2ccc(Cl)cc2)[nH]c2cc(Br)ccc12` [Compound 48, (E)-6-Bromo-2-(4-chlorostyryl)-N-(3-morpholinopropyl)-1H-indole-3-carboxamide] are above 64 µg/mL and above 64 µg/mL.
On to `O=C(Nc1ccccc1)Nc1nc2ccc(Br)cc2s1` [Compound 100, 1-(6-bromobenzo[d]thiazol-2-yl)-3-phenylurea], for which the MIC in assay [1] and in assay [2] was above 64 µg/mL each time.
